Laboratory results published in BigSolDB 2.1.

O=Cc1cc(C=O)cc(C=O)c1
solubility (mole fraction)
Conditions	283.15 K	288.15 K	293.15 K	298.15 K	303.15 K	308.15 K	313.15 K	318.15 K	323.15 K
in 1,4-dioxane	–	0.0135	0.0164	0.0206	0.0249	0.0288	0.0336	0.0372	0.041
in acetone	0.01	0.0112	0.0132	0.0152	0.0191	0.023	0.0265	0.0307	0.035
in acetonitrile	0.00502	0.00616	0.00711	0.00872	0.01	0.0113	0.0137	0.0153	0.0178
in ethanol	0.0018	0.00208	0.00251	0.00297	0.00365	0.00429	0.0052	0.00614	0.00703
in isobutanol	0.000219	0.000308	0.000396	0.000488	0.000917	0.00193	0.00277	0.00387	0.00601
in isopropanol	0.000462	0.000512	0.000605	0.00069	0.000803	0.00147	0.00216	0.00291	0.00363
in methanol	0.00351	0.00442	0.00563	0.00691	0.00858	0.0101	0.0122	0.0142	0.0158
in n-butanol	0.000718	0.000765	0.000864	0.0013	0.00181	0.00242	0.00288	0.0037	0.00565
in n-pentanol	0.00134	0.00153	0.00185	0.00216	0.00244	0.00276	0.00341	0.0042	0.00538
in n-propanol	0.000909	0.00104	0.00131	0.00154	0.00194	0.00243	0.00296	0.00347	0.00405
in sec-butanol	0.000294	0.000394	0.000601	0.000789	0.00101	0.00128	0.00155	0.00206	0.00254
in water	4.1e-05	6.1e-05	8.8e-05	0.000108	0.000132	0.000152	0.00017	0.000185	0.000198
